Laboratory results taken from patent publication US9737559B2, “Synergistic anti-diabetic compositions” (Ozstar Therapeutics Pty Ltd, priority 2011, dated 2017).

Key:
Assay type in all cases: in vivo, human
patient with T2DM [1] = assay: Gliclazide/inulin combination therapy, extended case report: FBG, HA1C and lipid profiles; details: Gliclazide 30 mg once daily for nearly a decade, before inulin
Excerpt: This patient began the combination therapy with a commercially available inulin (Cl) as previously described in PCT/AU2011/000622, the contents of which are incorporated herein in their entirety. Various blood parameter measurements were as described PCT/AU2011/000622.

patient with T2DM [2] = assay: Glimepiride/inulin combination therapy, T2DM case report, FBG
Method: Doctor recommended diet-only treatment. […] The dose was increased in a 1 mg increment and currently this patient is taking 4 mg once daily Glimepiride. [table] Blood sugar level was determined using Accu-Chek Performa (Roche, Mannheim, Germany) device (CAT/TYP 04680464003 mmol/L and 55405079196) according to manufacturer instructions. During baseline measurements of FBG levels, patient was on Glimepiride at the dose of 4 mg once daily.

patient with T2DM [3] = assay: Glipizide/inulin combination therapy, T2DM case report, FBG
Method: person, with body mass index of 29 classified as overweight, with the family history of T2DM.
[…] the patient was diagnosed with T2DM. Doctor recommended diet-only treatment. […] due to increased FBG levels the patient was treated with Glipizide (5 mg/day, 5 mg once daily). The dose was increased in a 5 mg increment and currently this patient is taking 15 mg/day, 5 mg three times a day, Glipizide.
Blood sugar level was determined using Accu-Chek Performs (Roche, Mannheim, Germany) device (CAT/TYP 04680464002 mmol/L and 55403057614) according to manufacturer instructions.
During baseline measurements of FBG level, patient was on Glipizide at the dose of 15 mg per day.
inulin introduced at 3 g/day (1 g with each meal, 3 times a day) for one week. Inulin amount was increased to 6 g/day (2 g with each meal, 3 times a day) at week 2, 9 g/day (3 g with each meal, 3 times a day) at week 3 and 12 g/day (4 g with each meal, 3 times a day) at week 4.
Patient continued taking inulin with meal at 4 g/meal (12 gr/day total).

## Cc1ccc(S(=O)(=O)NC(=O)NN2CC3CCCC3C2)cc1 (centres unmarked) [Gliclazide]
Patient with T2DM [1]
  blood glucose levels: above 9 mmol/L

## CCC1=C(C)CN(C(=O)NCCc2ccc(S(=O)(=O)NC(=O)N[C@H]3CC[C@H](C)CC3)cc2)C1=O [Glimepiride]
Patient with T2DM [2]; Glimepiride 4 mg once daily, no inulin, June 2011
  FBG at baseline: ~8 mmol/L
Patient with T2DM [2]; Glimepiride monotherapy, a couple of years prior to inulin
  FBG level prior to inulin combination therapy: above 7 mmol/L

## Cc1cnc(C(=O)NCCc2ccc(S(=O)(=O)NC(=O)NC3CCCCC3)cc2)cn1 [Glipizide]
Patient with T2DM [3]; Glipizide 15 mg per day, no inulin, July 2011
  FBG at baseline: ~6.5 mmol/L
Patient with T2DM [3]; Glipizide monotherapy, a couple of years prior to inulin
  FBG level prior to inulin combination therapy: around 7 mmol/L
